Here are results for six sequences from patent publication US11548925B2, “CACNA1H-derived tumor antigen polypeptide and use thereof” (Genoimmune Therapeutics Co., Ltd., priority 2016, dated 2023).

In one test the test system is T2 cells. Kind of test: LDH release assay, killing of peptide-loaded T2 target cells by CD8+ T cells. Format: cell-based, human. To be noted: 4 h. The procedure:
The cells cultured in Example 3 were co-cultured with T2 cells loaded with the mutant peptides of the present invention or the wild-type peptide or without a peptide. A maximum release well, a volume correction well, a medium control well, a spontaneous release well and control wells for example at different effector-to-target ratios (ratios of T cells to T2 cells) were set in this experiment. Three replicate wells were set for each group. After 4 h, 50 μl of the co-culture supernatant was taken out and added to 50 μl of LDH substrate mixture to catalyze the reaction of LDH substrate. Finally, the plates were read at a wavelength of 490 nm, with a reference wavelength of 680 nm, and the killing activity against target cells T2 was calculated based on the control wells.
The formula for calculating the killing activity is: Killing efficiency (%)=(test well−spontaneous release of effector cells−spontaneous release of target cells+medium well)/(maximum release of target cells−volume correction well−spontaneous release of target cells+medium well)×100%
(Release of lactate dehydrogenase indicates damage to the cell membrane.)

The test system of test [1] is CD8+ T cells. Kind of test: ELISPOTs detection of IFN-γ secretion by peptide-specific CD8+ T cells. Format: cell-based, human. To be noted: for Conclusion (immunogenicity): ELISPOTs; for Number of spots in the mutant peptide group / Number of spots in the wild-type peptide group: T cells activated by the listed peptide, 20 h; for Number of spots in the mutant peptide group: T2 cells loaded with TLISSLMPI; for Number of spots in the wild-type peptide group: T2 cells loaded with TLISSLRPI
An excerpt:
In this example, a ELISPOTs detection kit (Cat. No.: 3420-4AST-10, MABTECH) was used to verify the activation of an immune response of CD8+ T cells by the peptides of the present invention.
Principle of the ELISPOTs detection method is as follows: CD8+ T cells can specifically recognize the complex of HLA-A0201 and a peptide. The population of T cells recognizing the complex of the peptide and HLA-A0201 is varying, depending on the peptide sequence. Since T2 cells express HLA-A0201, CD8+ T cells can specifically recognize the T2 cells loaded with a peptide. After specific recognition of the complex of HLA-A0201 and the peptide, peptide-specific CD8+ T cells can be activated again to secrete IFN-γ interferon. The IFN-γ interferon secreted by the activated CD8+ T cells can be captured by antibodies on the ELISPOTs plate. Finally, the enzyme-conjugated antibody that recognizes IFN-γ can degrade the substrate through the enzyme conjugated thereto and develop color, eventually producing spots. The number of spots represents the number of cells that are activated to secrete IFN-γ interferon.
The cultured cells from Example 3 were added, along with T2 cells loaded with the mutant peptide […] (SEQ ID NO: 2) of the present invention and the wild-type peptide […] (SEQ ID NO: 1), respectively, into ELISPOTs plates, and cultured for 20 h, and then a ELISPOTs detection was performed (see the kit instruction). Finally, the spots produced by the ELISPOTs detection were counted.
The peptide was determined to have immunogenicity when the number of spots of the tested peptide/the number of spots of an unrelated peptide>2; that is, if the number of spots caused by the tested peptide is more than twice than that of an unrelated peptide, the tested peptide is determined to have immunogenicity.

The test system of test [2] is CD8+ T cells. The test is described as above. Format: cell-based, human. To be noted: ratio of spot numbers; >2 immunogenic.
The test system of test [3] is H2087-TLISSLMPI (SEQ ID NO: 2) subcutaneous tumor. Kind of test: DC vaccine infected with recombinant lentivirus containing peptide gene in H2087-[…] tumor model. The following applies: DC infected with lentivirus carrying peptide gene, 2 injections. Format: in vivo, NOD/SCID mice. The text has this: The following DNA sequences were synthesized: “[…]” (SEQ ID NO: 8), encoding the wild-type peptide […] (SEQ ID NO: 1); “[…]” (SEQ ID NO: 9), encoding the mutant peptide […] (SEQ ID NO: 2); “[…]” (SEQ ID NO: 10), encoding the SEQ ID NO: 2 […]'s variant peptide […] (SEQ ID NO: 3); “[…]” (SEQ ID NO: 11), encoding the SEQ ID NO: 2 […]'s variant peptide […] (SEQ ID NO: 4); “[…]” (SEQ ID NO: 12), encoding the SEQ ID NO: 2 […]'s variant peptide […] (SEQ ID NO: 5); “[…]” (SEQ ID NO: 13), encoding the SEQ ID NO: 2 […]'s variant peptide […] (SEQ ID NO: 6); and “[…]” (SEQ ID NO: 14), encoding the SEQ ID NO: 2_[…]'s variant peptide […] (SEQ ID NO: 7). The wild-type peptide […] (SEQ ID NO: 1), the mutant peptide […] (SEQ ID NO: 2) and the mutant peptide SEQ ID NO: 2 […]'s variant peptides were constructed into the lentiviral vector pHBLV-Puro, respectively, to name as pHBLV-Puro-[…] (SEQ ID NO: 1), pHBLV-Puro-[…] (SEQ ID NO: 2), pHBLV-Puro-[…] (SEQ ID NO: 3), pHBLV-Puro-[…] (SEQ ID NO: 4), pHBLV-Puro-[…] (SEQ ID NO: 5), pHBLV-Puro-[…] (SEQ ID NO: 6) and pHBLV-Puro-[…] (SEQ ID NO: 7), respectively. The seven lentiviral constructs were co-transfected into 293T cells with helper plasmids pSPAX2 and pMD2G for packaging, and lentiviruses of the wild-type peptide […] (SEQ ID NO: 1), the mutant peptide […] (SEQ ID NO: 2) and the mutant peptide's variant peptides were obtained.
600-900 ml of anticoagulated peripheral blood was collected from healthy volunteers for isolating peripheral blood mononuclear cells (PBMCs) via Ficoll. Cells were collected for use. 2×10^7 PBMCs per 0.5 ml was intraperitoneally injected into each of 300 NOD SCID mice without immune leakage to perform human immune reconstitution in NOD SCID mice. […]
The human non-small cell lung adenocarcinoma cell line H2087-[…] […] The long diameter a and the short diameter b of the tumor were measured with a vernier caliper every 2-3 days and the size of the tumor was calculated as a*b*b/2. The mice and tumors were weighed and recorded every day. […] The tumor volume and the survival rate of mice were recorded every 2 days. […]

[4] abbreviates: effector-to-target ratio 1:1, target T2 loaded with TLISSLMPI
Setting [5] is: effector-to-target ratio 1:1, target T2 loaded with wild-type TLISSLRPI
The mark [6] stands for this setting: effector-to-target ratio 10:1, target T2 loaded with TLISSLMPI
The mark [7] stands for this setting: effector-to-target ratio 10:1, target T2 loaded with wild-type TLISSLRPI

For the sequence TLISSLMPL, the Killing efficiency with T2 cells (setting [4]) came out at 8.23%; in the test on T2 cells (setting [5]) it was 3.12%; in the test with T2 cells (setting [6]), 39.66%; in the test on T2 cells (setting [7]) it was 5.71%. The “Conclusion (immunogenicity)” value in the test with CD8+ T cells [1] is on record as “immunogenic”. Also, the “Number of spots in the mutant peptide group” value in the test on CD8+ T cells [1] worked out at 317. For the same sequence, the “Number of spots in the wild-type peptide group” value in the test with CD8+ T cells [1] is 37. Moreover, in the test on CD8+ T cells [2], the “Fold (tested/wild-type)” value was determined as 8.57.
In the case of TLISSLMPV, the Killing efficiency turned out to be 8.56% in the test with T2 cells (setting [4]), 2.57% in the test on T2 cells (setting [5]), 43.82% in the test with T2 cells (setting [6]) and 4.73% in the test on T2 cells (setting [7]). In addition, the “Conclusion (immunogenicity)” value in the test on CD8+ T cells [1] is reported as “immunogenic”. For the same sequence, in the test with CD8+ T cells [1], the “Number of spots in the mutant peptide group” value is 325. Further, in the test with CD8+ T cells [1], the “Number of spots in the wild-type peptide group” value worked out at 41. The “Fold (tested/wild-type)” value with CD8+ T cells [2] turned out to be 7.93.
Turning to “TLISSLRPI [wild-type CACNA1H peptide used as comparison, reference compound]”, the Tumor-suppressing effect entry in test [3] is recorded as “no effect on this tumor”.
As to TMISSLMPI, the Killing efficiency in the test on T2 cells (setting [4]) is given as 8.33%; with T2 cells (setting [5]), 2.85%; with T2 cells (setting [6]) it was 41.16%; in the test on T2 cells (setting [7]) it was 5.13%. In addition, the “Conclusion (immunogenicity)” value in the test on CD8+ T cells [1] is on record as “immunogenic”. Further, the “Number of spots in the mutant peptide group” value in the test on CD8+ T cells [1] was found to be 321. Further, in the test with CD8+ T cells [1], the “Number of spots in the wild-type peptide group” value was determined as 27. The “Fold (tested/wild-type)” value in the test on CD8+ T cells [2] is 11.88.
Consider TMISSLMPL, for which the Killing efficiency stood at 9.12% in the test on T2 cells (setting [4]), 3.13% with T2 cells (setting [5]), 45.23% in the test on T2 cells (setting [6]) and 5.83% in the test on T2 cells (setting [7]). Besides, in the test on CD8+ T cells [1], the “Conclusion (immunogenicity)” value is on record as “immunogenic”. Moreover, the “Number of spots in the mutant peptide group” value with CD8+ T cells [1] was determined as 338. For the same sequence, the “Number of spots in the wild-type peptide group” value with CD8+ T cells [1] turned out to be 39. In addition, in the test on CD8+ T cells [2], the “Fold (tested/wild-type)” value is on record as 8.67.
As to TMISSLMPV, the Killing efficiency in the test on T2 cells (setting [4]) turned out to be 9.32%; with T2 cells (setting [5]), 3.51%; in the test with T2 cells (setting [6]), 47.35%; with T2 cells (setting [7]) it was 6.31%. Also, the “Conclusion (immunogenicity)” value in the test on CD8+ T cells [1] is “immunogenic”. In addition, in the test on CD8+ T cells [1], the “Number of spots in the mutant peptide group” value is 345. Further, the “Number of spots in the wild-type peptide group” value in the test with CD8+ T cells [1] came to 35. For the same sequence, the “Fold (tested/wild-type)” value in the test with CD8+ T cells [2] turned out to be 9.86.
